Drawing on paper PMC8791944, “GLUT3 inhibitor discovery through in silico ligand screening and in vivo validation in eukaryotic expression systems” (Scientific Reports, 2022), this text covers IC50 for 6 compounds.

Molecules are shown by their SMILES. A value given as a limit tells only on which side of the number the result lay.

One test has as its target T1, GLUT1 (Homo sapiens, UniProt P11166).
T1 construct: expressed in transfected cells; host or cells: Saccharomyces cerevisiae hxt0 strain EBY.S7 (fgy1)
T1 sequence (P11166 1-492): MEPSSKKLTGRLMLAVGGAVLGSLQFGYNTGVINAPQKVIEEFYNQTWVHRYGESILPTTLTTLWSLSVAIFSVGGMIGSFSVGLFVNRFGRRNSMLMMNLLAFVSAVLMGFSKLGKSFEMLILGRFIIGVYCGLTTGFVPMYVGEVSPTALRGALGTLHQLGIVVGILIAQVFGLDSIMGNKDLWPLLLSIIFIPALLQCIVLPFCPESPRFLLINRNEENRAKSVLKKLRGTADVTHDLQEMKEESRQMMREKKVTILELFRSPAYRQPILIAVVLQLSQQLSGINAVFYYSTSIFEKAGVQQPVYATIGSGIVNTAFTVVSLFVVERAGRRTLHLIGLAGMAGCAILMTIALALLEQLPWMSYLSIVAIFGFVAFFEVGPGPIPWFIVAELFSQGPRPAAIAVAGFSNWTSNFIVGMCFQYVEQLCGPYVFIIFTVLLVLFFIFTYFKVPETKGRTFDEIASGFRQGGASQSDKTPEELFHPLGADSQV
Briefly: Glucose transport assay, GLUT1 expressed in hxt^0 yeast cells EBY.S7. It counts as cell-based. The note with it: read-out: IC50 for GLUT1 transport inhibition. An excerpt: (§1) The most studied GLUTs are Class 1 GLUTs (GLUT1-4) and a Class 2 GLUT, GLUT5 (a fructose-only transporter). GLUT3 sequence homology and identity is 79% and 64%, 71% and 52%, 74% and 57%, and 60% and 38% with GLUT1, GLUT2, GLUT4, and GLUT5, respectively. The hxt^0 yeast cell systems expressing functional GLUT1-4[65],[69] and GLUT5[66] allow us to determine the in vivo transport activity (substrate uptake by a GLUT into whole cells) for individual GLUTs and establish GLUT3 inhibitor selectivity for these transporters. […] Given the higher sequence similarity within Class 1 GLUTs, we expected GLUT3 inhibitors to affect Class 1 GLUTs much more than GLUT5. Indeed, G3iA-G3iF reduced the transport activities of some of the other Class 1 GLUTs (Fig. 3A–C, Table 2, Supplementary Fig. S6). […] For example, G3iB was an equipotent inhibitor of GLUT4, while G3iD and G3iE inhibited GLUT1 in a similar manner to GLUT3. […] Moreover, G3iD affected all Class 1 GLUTs, having the best relative selectivity for GLUT4.
(§2) Figure 3 Effect of GLUT3 inhibitors on GLUT1, GLUT2, GLUT4, and GLUT5. The transport activity was assayed as the substrate uptake in hexose transporter-deficient yeast cells expressing functional GLUT1[65], GLUT2[69], GLUT4[65], or GLUT5[66]. […] Transport assay was initiated by the addition of C^14-labeled substrate and stopped after 10 min (see “Materials and methods” for details). (A–D) Effect of G3iA-G3iF, at 50 µM concentration, on the relative transport activities of GLUT1 (A), GLUT2 (B), GLUT4 (C), and GLUT5 (D). Standard deviations for experimental points come from at least three independent measurements.
(§3) The plasmids containing functional constructs of GLUT1-5 were transformed in the corresponding hxt^0 strains[65],[66],[73] (EBY.VW4000 for GLUT5S72Y, EBY.S7 for GLUT1, GLUT2∆loopS_Q455R, GLUT3 and GLUT3S66Y, and SDY.022 for GLUT4) and grown on 2% (w/v) agar plates of the respective media supplemented with 1% (w/v) maltose. An initial culture of ~ 10 ml was started with a few colonies and grown for 2–3 days if the media was SC-uracil with 1% (w/v) maltose (GLUT1, GLUT3, GLUT4) or 1–2 days if the media was YEP with 1% (w/v) maltose and 100 µg/ml geneticin G418 (GLUT2∆loopS_Q455R and GLUT5S72Y). […] Then, cells were transferred in the same media so that OD600nm ~ 0.5 and grown further for 1–2 days.
(§4) For transport activity assay, cells in the hexose media were centrifuged (1000×g, 5 min, room temperature), washed once with PBS buffer (10 mM Na2HPO4, 1.8 mM KH2PO4, 2.7 mM KCl, 137 mM NaCl, pH 7.4), and resuspended in PBS buffer at an OD600nm ~ 10; each assay contained 100 µl of this cell solution. […] Substrate uptake into cells was linear for more than 20 min. […] The filtration membranes were transferred into scintillation vials with 10 ml of Scintillation Solution (BioSafeII; Research Products International, Mount Prospect, IL, USA), and vortexed briefly. The radioactivity was determined with a scintillation counter (Tri-carb 2900TR, Perkin Elmer, USA). As all compounds were solubilized in dimethyl sulfoxide (DMSO), controls for determining the relative transport activity included 1% (v/v) DMSO to represent DMSO used as vehicle control (i.e., 100% activity), and known inhibitors at saturating concentrations, 200 µM phloretin for GLUT1-4[69],[82], and 100 µM N-[4-(methylsulfonyl)-2-nitrophenyl]-1,3-benzodioxol-5-amine (MSNBA) for GLUT5 (i.e., complete inhibition). […] Data were analyzed with GraphPad Prism (San Diego, CA, USA).
Supplementary Figure S6. Dose response curves for GLUT3 inhibitors on the transport activities of GLUT1, GLUT2, and GLUT4 in hxt^0 yeast cells. Dose response curves for GLUT3 inhibitors in GLUT1 (top row), GLUT2 (middle row), and GLUT4 (bottom row). […] Error bars represent standard deviations from at least three independent measurements. Graphs, data analysis, and IC50 values were generated with GraphPad (www.graphpad.com).

A further test deals with T2, GLUT5S72Y (Homo sapiens, UniProt P22732, S72Y).
T2 construct: expressed in transfected cells; host or cells: Saccharomyces cerevisiae hxt0 strain EBY.VW4000
T2 sequence (P22732 1-501 S72Y): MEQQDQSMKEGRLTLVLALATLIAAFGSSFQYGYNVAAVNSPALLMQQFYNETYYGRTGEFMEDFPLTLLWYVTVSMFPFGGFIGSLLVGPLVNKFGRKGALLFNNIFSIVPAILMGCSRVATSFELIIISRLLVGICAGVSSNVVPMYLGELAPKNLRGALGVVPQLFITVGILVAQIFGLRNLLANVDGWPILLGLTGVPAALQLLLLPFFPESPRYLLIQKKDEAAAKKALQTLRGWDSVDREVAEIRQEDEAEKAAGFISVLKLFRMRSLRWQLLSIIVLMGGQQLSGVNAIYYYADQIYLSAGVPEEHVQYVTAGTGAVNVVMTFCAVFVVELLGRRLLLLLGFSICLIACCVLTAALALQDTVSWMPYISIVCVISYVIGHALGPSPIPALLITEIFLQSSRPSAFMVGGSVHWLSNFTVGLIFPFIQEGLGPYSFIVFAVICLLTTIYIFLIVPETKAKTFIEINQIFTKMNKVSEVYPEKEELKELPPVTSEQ
Briefly: Fructose transport assay, GLUT5S72Y expressed in hxt^0 yeast cells EBY.VW4000. It counts as cell-based. Conditions: GLUT5S72Y in hxt^0 yeast cells, 10 mM fructose; read-out: IC50 for GLUT5 transport inhibition.
From the text: as §1, §2, §3, §4

What is called IC50 is the concentration that gives 50% inhibition.

As for `COc1ccccc1-n1c(/C=C/c2ccc(O)cc2)nc2ccc(Br)cc2c1=O` [G3iB, 6-bromo-2-[(E)-2-(4-hydroxyphenyl)ethenyl]-3-(2-methoxyphenyl)quinazolin-4(3H)-one], the IC50 is 25 ± 8.6 µM on GLUT1 and over 50 µM on GLUT5S72Y.

For the compound `O=C(Nc1cccc(Cl)c1)c1cccc(NC(=O)c2cccc([N+](=O)[O-])c2)c1` [G3iE, N-{3-[(3-chloroanilino)carbonyl]phenyl}-3-nitrobenzamide], the IC50 on GLUT1 is 22.4 ± 3.7 µM; on GLUT5S72Y, over 50 µM.

`Cc1ccccc1CN(Cc1nnc(C(C)(C)C)o1)c1ccc2nc(O)[nH]c2c1` [G3iF]: the IC50 at GLUT1 and on GLUT5S72Y was over 50 µM each time.

As to `Cc1cccnc1OC1CCN(c2cc(N3CCCC3CO)ncn2)CC1` (stereo not drawn) [G3iC], the IC50 on GLUT1 is 49.4 ± 6.7 µM; on GLUT5S72Y, over 50 µM.

As to `Cc1cc(NC(=O)CCC2Cc3ccccc3NC2=O)nc(-c2ccccc2)n1` (stereo not drawn) [G3iD], the IC50 on GLUT1 was 17.7 ± 2.3 µM; on GLUT5S72Y, over 50 µM.

With `CC(=O)Nc1ccc(S(=O)(=O)Nc2ccc(Nc3cc(N(C)C)nc(C)n3)cc2)cc1` [G3iA, N-(4-{[(4-{[6-(dimethylamino)-2-methylpyrimidin-4-yl]amino}phenyl)amino]sulfonyl}phenyl)acetamide], the 50% inhibitory concentration (IC50) on GLUT1 and at GLUT5S72Y was over 50 µM each time.
